From ChEMBL document CHEMBL2057151, “Synthesis and structure-activity relationships of pyrido[3,2-b]pyrazin-3(4H)-ones and pteridin-7(8H)-ones as corticotropin-releasing factor-1 receptor antagonists” (Bioorg Med Chem Lett, 2012) come the findings set out here.

The target of data set [1] is T1, Corticotropin-releasing factor receptor 1 (Rattus norvegicus, UniProt P35353).
T1 sequence (P35353 whole entry): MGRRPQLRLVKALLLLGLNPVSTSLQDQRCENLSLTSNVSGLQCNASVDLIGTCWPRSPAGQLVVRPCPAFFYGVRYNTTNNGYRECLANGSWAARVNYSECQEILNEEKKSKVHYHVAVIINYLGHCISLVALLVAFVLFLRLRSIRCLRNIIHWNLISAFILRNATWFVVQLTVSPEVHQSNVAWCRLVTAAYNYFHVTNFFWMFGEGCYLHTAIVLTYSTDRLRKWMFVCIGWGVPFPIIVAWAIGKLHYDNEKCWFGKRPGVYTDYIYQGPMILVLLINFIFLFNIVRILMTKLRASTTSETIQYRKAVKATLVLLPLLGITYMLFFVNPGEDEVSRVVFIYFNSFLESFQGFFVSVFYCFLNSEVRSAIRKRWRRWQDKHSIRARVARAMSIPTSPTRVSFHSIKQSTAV
Briefly: Antagonist activity at rat CFR1R. Type of data set: functional.

The nature of data set [2]: Fraction unbound in rat plasma. In kind it is ADME, cell-free.
Data set [3] is described as follows: Clearance in rat at 0.5 mg/kg, iv and 1.5 mg/kg, po. In kind it is ADME, organism-based. The settings on record: in vivo.
Data set [4] in a line: Volume of distribution at steady state in rat at 0.5 mg/kg, iv and 1.5 mg/kg, po. Type of data set: ADME, organism-based. The settings on record: in vivo, read-out: Vdss.
For another data set, the system named is Rattus norvegicus. The data set can be described thus: AUC in rat at 1.5 mg/kg, po. In kind it is ADME, organism-based, Plasma. The settings on record: in vivo. Also on record: dose 1.5 mg/kg, route oral.
Data set [5] can be described thus: Half life in rat at 0.5 mg/kg, iv. The settings on record: in vivo. Type of data set: ADME, organism-based. Also on record: dose 0.5 mg/kg, route intravenous.

Regarding `COc1ccc(-c2ncnc3c2nc(C)c(=O)n3C(C2CC2)C2CC2)c(C)c1`, the IC50 – broadly, the concentration needed to halve the response being measured – in data set [1] came out at 37 nM. In addition, in data set [2], the fraction unbound (in general, free concentration divided by total concentration) was 0.014.
`CCC(COC)n1c(=O)c(C)nc2c(-c3cc(F)c(OC)cc3Cl)ncnc21` (stereo not given) had an IC50 in data set [1] of 16 nM. In addition, the fraction unbound in data set [2] was found to be 0.014.
Take `COCC(C1CC1)n1c(=O)c(C)nc2c(-c3cc(F)c(OC)cc3Cl)ncnc21` (stereo not given): in data set [1], the IC50 came to 7.5 nM. The same molecule showed a fraction unbound in data set [2] of 0.028. This molecule also gave a clearance in data set [3] of 33.7 mL/min/kg. For the same molecule, in data set [4], the Vd is 2.05 L/kg. In the data set on Rattus norvegicus, the AUC (usually the area under the concentration-time curve, a measure of exposure) came to 0.3 µM·h. Further, in data set [5], the half-life (as a rule, the time in which the quantity being followed falls by half) was 2 h.
The molecule `CC[C@@H](C1CC1)n1c(=O)c(C)nc2c(-c3ccc(Cl)cc3Cl)nccc21` yielded a concentration for half-maximal inhibition (IC50) in data set [1] of 55 nM.
On the same count and under the same terms, in the case of `CC[C@H](COC)n1c(=O)c(C)nc2c(-c3ccc(Cl)cc3Cl)nccc21` it was 150 nM.
In data set [1], `COc1ccc(-c2ccnc3c2nc(C)c(=O)n3C(C2CC2)C2CC2)c(C)c1` came in with an IC50 of 3 nM. This molecule also returned a fraction unbound in data set [2] of 0.03.
For `CCC(COC)n1c(=O)c(C)nc2c(-c3cc(F)c(OC)cc3Cl)ccnc21` (stereo not given) the same measures were 2.1 nM and 0.03.
For `COCC(C1CC1)n1c(=O)c(C)nc2c(-c3cc(F)c(OC)cc3Cl)ccnc21` (stereo not given) the same measures were 1.5 nM and less than 0.002.
Regarding `CCC(COC)n1c(=O)c(C)nc2c(-c3cc(Cl)c(OC)cc3C)ccnc21` (stereo not given), the clearance in data set [3] was 9.5 mL/min/kg. In data set [4], the Vd was 1.8 L/kg. The same molecule yielded an AUC with Rattus norvegicus of 8.5 µM·h. In data set [5], this molecule showed a half-life of 5.8 h.
As to `Cc1nc2c(-c3ccc(Cl)cc3Cl)ccnc2n(CC(C)C)c1=O`, the IC50 in data set [1] was found to be 3500 nM.
Same read-out and setting: in the case of `Cc1nc2c(-c3ccc(Cl)cc3Cl)ccnc2n(C(C)C(C)C)c1=O` (stereo not given) it was 380 nM; in that of `CCCC(C)n1c(=O)c(C)nc2c(-c3ccc(Cl)cc3Cl)ccnc21` (stereo not given), 62 nM; in that of `CC[C@H](C1CC1)n1c(=O)c(C)nc2c(-c3ccc(Cl)cc3Cl)ccnc21`, 8.2 nM.
`CC[C@@H](C1CC1)n1c(=O)c(C)nc2c(-c3ccc(Cl)cc3Cl)ccnc21` came in with an IC50 in data set [1] of 7.4 nM. Moreover, the fraction unbound in data set [2] amounted to 0.002.
For `CCCC(C1CC1)n1c(=O)c(C)nc2c(-c3ccc(Cl)cc3Cl)ccnc21` (stereo not given), in data set [1], the IC50 came to 4.3 nM.
Same read-out and setting: in the case of `COCC(C)n1c(=O)c(C)nc2c(-c3ccc(Cl)cc3Cl)ccnc21` (stereo not given) it was 63 nM.
As for `CC[C@H](COC)n1c(=O)c(C)nc2c(-c3ccc(Cl)cc3Cl)ccnc21`, in data set [1], the IC50 was 4 nM. In data set [2], the unbound share (fraction unbound) turned out to be 0.004.
As for `CC[C@@H](COC)n1c(=O)c(C)nc2c(-c3ccc(Cl)cc3Cl)ccnc21`, the IC50 in data set [1] is 74 nM.
In data set [1], `CC[C@@H](C1CC1)n1c(=O)c(C)nc2c(-c3ccc(C(F)(F)F)cc3Cl)ccnc21` had an IC50 of 21 nM. This IC50 lies about 3.5-fold lower than the previous one.
For `CC[C@@H](C1CC1)n1c(=O)c(C)nc2c(-c3ccc(OC(F)F)cc3Cl)ccnc21`, in data set [1], the IC50 was determined as 7.3 nM.
`CC[C@@H](C1CC1)n1c(=O)c(C)nc2c(-c3ccc(OC)cc3Cl)ccnc21` returned an IC50 in data set [1] of 4 nM. Compared with the last molecule, the IC50 is about 1.8-fold lower.
Same read-out and setting: in the case of `CC[C@H](C1CC1)n1c(=O)c(C)nc2c(-c3ccc(OC)cc3Cl)ccnc21` it was 4.5 nM.
Same read-out and setting: in the case of `CC[C@H](C1CC1)n1c(=O)c(C)nc2c(-c3cc(Cl)c(OC)cc3C)ccnc21` it was 4.5 nM; in that of `CC[C@H](C1CC1)n1c(=O)c(C)nc2c(-c3cc(F)c(OC)cc3Cl)ccnc21`, 1.7 nM; in that of `CC[C@H](C1CC1)n1c(=O)c(C)nc2c(-c3cc(F)c(OC)cc3C)ccnc21`, 9.4 nM.
On the same count and under the same terms, in the case of `CCC(C1CC1)n1c(=O)c(C)nc2c(-c3cc(C#N)c(C)cc3Cl)ccnc21` (stereo not given) it was 4.8 nM.
Consider `CC[C@H](C1CC1)n1c(=O)c(C)nc2c(-c3ccc(OC)cc3C)ccnc21`, for which, in data set [1], half-maximal inhibition (IC50) was put at 11 nM.
In data set [1], `CC[C@H](C1CC1)n1c(=O)c(C)nc2c(-c3ccc(OC)nc3C)ccnc21` displayed an IC50 of 76 nM.
Still for that read-out and setting: in the case of `CC[C@H](C1CC1)n1c(=O)c(C)nc2c(-c3cc(C)c(OC)cc3C)ccnc21` it was 130 nM; in that of `CC[C@H](C1CC1)n1c(=O)c(C)nc2c(-c3cc(C)c(OC)nc3C)ccnc21`, 15 nM.
In data set [1], `CC[C@@H](C1CC1)n1c(=O)c(C)nc2c(-c3ccc(Cl)cc3Cl)ncnc21` displayed a 50% inhibitory concentration (IC50) of 24 nM. This molecule returned a fraction unbound in data set [2] of 0.004.
For the molecule `CC[C@H](COC)n1c(=O)c(C)nc2c(-c3ccc(Cl)cc3Cl)ncnc21`, the IC50 in data set [1] was 97 nM. In data set [2], this molecule yielded a fraction unbound of 0.022.
`CCC(C1CC1)n1c(=O)c(C)nc2c(-c3cc(Cl)c(OC(F)F)cc3C)ncnc21` (stereo not given) had an IC50 in data set [1] of 38 nM. This molecule gave a fraction unbound in data set [2] of 0.004.
In data set [1], `CCC(C1CC1)n1c(=O)c(C)nc2c(-c3ccc(C)cc3C)ccnc21` (racemic) gave an IC50 of 8.8 nM. This counts as single-digit nanomolar.
Still for that read-out and setting: in the case of `CCC(C1CC1)n1c(=O)c(C)nc2c(-c3cc(C)c(C)cc3C)ccnc21` (racemic) it was 5.2 nM; in that of `CCC(C1CC1)n1c(=O)c(C)nc2c(-c3cc(C)c(C)c(C)c3C)ccnc21` (racemic), 340 nM.
For `CCC(C1CC1)n1c(=O)c(C)nc2c(-c3cc(C)c(OC)cc3Cl)ccnc21` (racemic), the IC50 in data set [1] is 0.68 nM. This molecule yielded a fraction unbound in data set [2] of less than 0.002.
In the case of `CCOc1cc(Cl)c(-c2ccnc3c2nc(C)c(=O)n3C(CC)C2CC2)cc1C` (racemic), the 50% inhibitory concentration (IC50) in data set [1] turned out to be 2 nM.
Same read-out and setting: in the case of `CCC(C1CC1)n1c(=O)c(C)nc2c(-c3cc(C)c(OC(C)C)cc3Cl)ccnc21` (racemic) it was 15 nM.
`CCC(C1CC1)n1c(=O)c(C)nc2c(-c3cc(Cl)c(OC(F)F)cc3C)ccnc21` (racemic) had an IC50 in data set [1] of 9.7 nM. The molecule further yielded a free fraction (fraction unbound) in data set [2] of 0.003.
As for `CCC(C1CC1)n1c(=O)c(C)nc2c(-c3cc(F)c(OC)cc3F)ccnc21` (racemic), the IC50 in data set [1] turned out to be 52 nM. That is a double-digit nanomolar value.
In turn, `CCC(C1CC1)n1c(=O)c(C)nc2c(-c3cc(F)c(N(C)C)cc3Cl)ccnc21` (racemic) returned an IC50 in data set [1] of 0.82 nM. Moreover, in data set [2], the fraction unbound was less than 0.002.
Regarding `CCC(C1CC1)n1c(=O)c(C)nc2c(-c3cc(C)c(Cl)cc3OC)ccnc21` (racemic), in data set [1], the IC50 is 1.1 nM.
Same read-out and setting: in the case of `CCC(C1CC1)n1c(=O)c(C)nc2c(-c3cc(Cl)c(OC)cc3OC)ccnc21` (racemic) it was 3.4 nM.
